Results on two compounds are retold here after patent US8476273B2, “Small molecule inhibitors of Lck SH2 domain binding” (University of Maryland, Baltimore, priority 2007, dated 2013).

Entries after “also recorded” stand apart in the source; their conditions may differ.

One assay concerns the target T1, Lck SH2 domain (Homo sapiens, UniProt P06239).
T1 construct: GST
In words: solid phase EIA of Lck SH2 domain binding to CD3 ζ chain ITAM peptide. Conditions: screening concentration of 100 μM. The text has this:
Compounds have been identified that inhibited Lck SH2 domain binding to the CD3 ζ chain ITAM peptide using a combination of CADD and biological assays using a solid phase EIA assay developed in our laboratory.
(§1) Lck kinase is a member of Src family kinases including Fyn, Lyn, and Hck that have SH2 domains sharing significant sequence homologies at βD5, βE4, EF1 and βG4 sites where these amino acids form the pY+3 binding pocket. Accordingly, it was important to test inhibition specificities of compounds against SH2 domains of these Src kinases and other signal transduction molecules involved in TCR proximal signaling. All 42 compounds identified in the above assay were subjected to specificity screening using a solid phase EIA assay using 7 different GST-SH2 domains (Lck, Fyn, Lyn, Hck, Src, She and Grb2).
(§2) All the compounds that had >40% inhibitory effect in the cellular assays were tested in the solid phase specificity screening assay and three compounds, 72, 87 and 241 were identified to be specific to Lck. Due to the fact that these compounds were specific to Lck SH2 domain, in vitro and in vivo assays described below were conducted using these 3 compounds.

Assay [1] concerns GST-SH2 domains (Fyn, Lyn, Hck, Src, She and Grb2). In words: solid phase EIA specificity screening with other GST-SH2 domains. Type of assay: binding. To be noted: screening concentration of 100 μM.
Excerpt: as §1, §2

In assay [2] the test system is Mtb-induced adjuvant arthritis. In words: Mtb-induced adjuvant arthritis (AA) in Lewis rats. In kind it is in vivo, Lewis rat. The protocol:
FIG. 4A is a line graph showing the effect of SMILS in a preventive treatment regimen. […] Mtb was injected on day 0. ▭—Untreated group, ◯—SMILS treated group.
FIG. 4B is a line graph showing the effect of SMILS in therapeutic-1 treatment regimen. […] Mtb was injected on day 0. ⋄—Untreated group, ◯—SMILS treated group (3 mg/kg body weight), ●—SMILS (1 mg/kg body weight) treatment group.
FIG. 4C is a line graph showing the effects of SMILS in therapeutic-2 treatment regimen. […] Mtb was injected on day 0. ⋄—Untreated group, ●—SMILS (3 mg/kg body weight) treatment group.
Pilot experiments using Lewis rats were carried out to assess the effect of SMILS on Mtb-induced AA. The initial experiments described here were carried out using compound 241. Experiments were carried out to test the efficacy of SMILS (3 mg/kg body weight injected i.p.) in three treatment regimens: i.e., preventive: (SMILS injected at −3, −2, −1, 0 days before Mtb injection); therapeutic 1: at the time of AA induction (SMILS injected at 0, 1, 2, 3, 4 days after Mtb injection); and therapeutic 2: at the time of clinical symptom appearance (SMILS injected at 10, 11, 12, 13 days after Mtb injection).
In addition to the visual scoring of the joint swelling, histological examinations of joints from all 4 paws collected at the peak of the disease were carried out.

T1 sequence (P06239 127-224 limits assumed): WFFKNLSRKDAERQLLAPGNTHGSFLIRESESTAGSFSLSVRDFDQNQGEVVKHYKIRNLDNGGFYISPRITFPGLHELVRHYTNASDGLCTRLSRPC

For the compound `O=C(O)COc1ccccc1/C=N/NC(=O)c1cc(Cl)ccc1O` [Compound 72], the “specificity towards Lck SH2 domain” value on Lck SH2 domain is reported as “showed specificities towards Lck SH2 domain”. For the same compound, the “inhibitory activity against the other SH2 domains” value in assay [1] was “little or no inhibitory activity”.
Consider `O=C(NCCSc1ccccc1)c1cncc(Br)c1` [Compound 241], for which the “joint swelling in Mtb-induced AA, therapeutic 1 regimen” value in assay [2] (3 mg/kg i.p. on days 0, 1, 2, 3, 4 after Mtb, Lewis rats) is “significantly reduced the joint swellings in all rats”. For the same compound, the “joint swelling in Mtb-induced AA, therapeutic 2 regimen” value in assay [2] (3 mg/kg i.p. on days 10, 11, 12, 13 after Mtb, Lewis rats) is “significantly reduced the joint swellings in all rats”. The “joint swelling in Mtb-induced AA, preventive regimen” value in assay [2] (3 mg/kg i.p. on days -3, -2, -1, 0, Lewis rats) was “delayed the onset of joint swelling and reduced the severity of joint swellings”. Besides, the “histological examination of joints” value in assay [2] (paws collected at the peak of the disease, AA rats) is “absence of damage to the cartilage and inflammatory cells; also recorded: No infiltration of inflammatory cells is observed in the joint space”. The “specificity towards Lck SH2 domain” value at Lck SH2 domain was “showed specificities towards Lck SH2 domain”. The “inhibitory activity against the other SH2 domains” value in assay [1] is listed as “little or no inhibitory activity”.
